{"source": "ChEMBL document CHEMBL2016506", "about": "“Glucose-aspirin: Synthesis and in vitro anti-cancer activity studies” (Bioorg Med Chem Lett, 2012)", "key": {"PANC-1 [1]": {"system": "PANC-1", "assay": "Growth inhibition of human PANC1 cells at 2 x 10 '-3 M to 1.5 x 10^-4 M after 24 hrs by alamar blue assay", "format": "functional"}, "SK-BR-3 [2]": {"system": "SK-BR-3", "assay": "Growth inhibition of human SKBR3 cells at 300 uM after 48 hrs by alamar blue assay", "format": "functional"}, "WI-38 [3]": {"system": "WI-38", "assay": "Cytotoxicity against human WI38 cells at 2 x 10^-3 to 3 x 10^-4 M after 48 hrs by alamar blue assay", "format": "cell-based", "settings": "wi-38, 48 h"}, "PC-3 [4]": {"system": "PC-3", "assay": "Growth inhibition of human PC3 cells at 300 uM after 48 hrs by alamar blue assay", "format": "functional"}, "WI-38 [5]": {"system": "WI-38", "assay": "Cytotoxicity against human WI38 cells at 2 x 10^-3 to 3 x 10^-4 M after 24 hrs by alamar blue assay", "format": "cell-based", "settings": "wi-38, 24 h"}, "PC-3 [6]": {"system": "PC-3", "assay": "Growth inhibition of human PC3 cells at 2 x 10^-3 to 1.5 x 10^-4 M after 48 hrs by alamar blue assay", "format": "functional, cell-based"}, "PANC-1 [7]": {"system": "PANC-1", "assay": "Growth inhibition of human PANC1 cells at 300 uM after 48 hrs by alamar blue assay", "format": "functional"}, "SK-BR-3 [8]": {"system": "SK-BR-3", "assay": "Growth inhibition of human SKBR3 cells at 2 x 10 '-3 M to 1.5 x 10^-4 M after 24 hrs by alamar blue assay", "format": "functional"}, "PC-3 [9]": {"system": "PC-3", "assay": "Growth inhibition of human PC3 cells at 2 x 10 '-3 M to 1.5 x 10^-4 M after 24 hrs by alamar blue assay", "format": "functional"}, "PANC-1 [10]": {"system": "PANC-1", "assay": "Growth inhibition of human PANC1 cells at 2 x 10^-3 to 1.5 x 10^-4 M after 48 hrs by alamar blue assay", "format": "functional, cell-based"}, "[11]": {"assay": "Drug metabolism in human serum assessed as compound hydrolysis after 3 hrs by HPLC analysis", "format": "ADME, cell-free", "settings": "read-out: Drug metabolism"}, "PC-3 [12]": {"system": "PC-3", "assay": "Cytotoxicity against human PC3 cells after 24 hrs by alamar blue assay", "format": "functional, cell-based", "settings": "PC-3, 24 h"}, "[13]": {"assay": "Aqueous solubility of the compound in 43 ml water", "format": "physicochemical", "settings": "buffer"}, "SK-BR-3 [14]": {"system": "SK-BR-3", "assay": "Growth inhibition of human SKBR3 cells at 2 x 10^-3 to 1.5 x 10^-4 M after 48 hrs by alamar blue assay", "format": "functional, cell-based"}, "PC-3 [15]": {"system": "PC-3", "assay": "Cytotoxicity against human PC3 cells after 48 hrs by alamar blue assay", "format": "functional, cell-based", "settings": "PC-3, 48 h"}, "PANC-1 [16]": {"system": "PANC-1", "assay": "Cytotoxicity against human PANC1 cells after 24 hrs by alamar blue assay", "format": "functional, cell-based", "settings": "PANC-1, 24 h"}, "PANC-1 [17]": {"system": "PANC-1", "assay": "Ratio of IC50 for aspirin to compound IC50 for human PANC1 cells", "format": "functional"}, "[18]": {"assay": "Aqueous solubility of the compound in 300 ml water", "format": "physicochemical", "settings": "buffer"}, "PANC-1 [19]": {"system": "PANC-1", "assay": "Growth inhibition of human PANC1 cells at 150 uM after 48 hrs by alamar blue assay", "format": "functional", "settings": "PANC-1, 48 h, read-out: GI"}, "SK-BR-3 [20]": {"system": "SK-BR-3", "assay": "Cytotoxicity against human SKBR3 cells after 48 hrs by alamar blue assay", "format": "functional, cell-based", "settings": "SK-BR-3, 48 h"}, "WI-38 [21]": {"system": "WI-38", "assay": "Cytotoxicity against human WI38 cells at 300 uM after 24 hrs by alamar blue assay", "format": "cell-based", "settings": "wi-38, 24 h"}, "PC-3 [22]": {"system": "PC-3", "assay": "Growth stimulation of human PC3 cells at 2 x 10^-3 M after 24 to 48 hrs by alamar blue assay", "format": "functional, cell-based"}, "SK-BR-3 [23]": {"system": "SK-BR-3", "assay": "Cytotoxicity against human SKBR3 cells after 24 hrs by alamar blue assay", "format": "functional, cell-based", "settings": "SK-BR-3, 24 h"}, "SK-BR-3 [24]": {"system": "SK-BR-3", "assay": "Ratio of IC50 for aspirin to compound IC50 for human SKBR3 cells", "format": "functional"}, "WI-38 [25]": {"system": "WI-38", "assay": "Cytotoxicity against human WI38 cells after 48 hrs by alamar blue assay", "format": "cell-based", "settings": "WI-38, 48 h"}, "SK-BR-3 [26]": {"system": "SK-BR-3", "assay": "Growth inhibition of human SKBR3 cells at 150 uM after 48 hrs by alamar blue assay", "format": "functional", "settings": "SK-BR-3, 48 h, read-out: GI"}, "PANC-1 [27]": {"system": "PANC-1", "assay": "Growth inhibition of human PANC1 cells at 300 uM after 24 hrs by alamar blue assay", "format": "functional", "settings": "PANC-1, 24 h, read-out: GI"}, "PC-3 [28]": {"system": "PC-3", "assay": "Growth inhibition of human PC3 cells at 150 uM after 48 hrs by alamar blue assay", "format": "functional", "settings": "PC-3, 48 h, read-out: GI"}, "WI-38 [29]": {"system": "WI-38", "assay": "Cytotoxicity against human WI38 cells after 24 hrs by alamar blue assay", "format": "cell-based", "settings": "WI-38, 24 h"}, "PANC-1 [30]": {"system": "PANC-1", "assay": "Cytotoxicity against human PANC1 cells after 48 hrs by alamar blue assay", "format": "functional, cell-based", "settings": "PANC-1, 48 h"}, "WI-38 [31]": {"system": "WI-38", "assay": "Growth stimulation of human WI38 cells at 2 x 10^-3 to 3 x 10^-4 M after 24 to 48 hrs by alamar blue assay", "format": "functional, cell-based"}, "SK-BR-3 [32]": {"system": "SK-BR-3", "assay": "Growth inhibition of human SKBR3 cells at 300 uM after 24 hrs by alamar blue assay", "format": "functional", "settings": "SK-BR-3, 24 h, read-out: GI"}, "PC-3 [33]": {"system": "PC-3", "assay": "Ratio of IC50 for aspirin to compound IC50 for human PC3 cells", "format": "functional"}, "PC-3 [34]": {"system": "PC-3", "assay": "Growth inhibition of human PC3 cells at 300 uM after 24 hrs by alamar blue assay", "format": "functional", "settings": "PC-3, 24 h, read-out: GI"}}, "note": "The source made the active and inactive calls. The rule behind the calls is not given here."}
{"smiles": "CC(=O)Oc1ccccc1C(=O)O", "note": "[ASPIRIN]", "values": [{"measurement": "growth inhibition (GI)", "setting": "PANC-1 [1]", "value": "inactive"}, {"measurement": "growth inhibition (GI)", "setting": "SK-BR-3 [2]", "value": "Active"}, {"measurement": "Activity", "setting": "WI-38 [3]", "value": "Toxic"}, {"measurement": "growth inhibition (GI)", "setting": "PC-3 [4]", "value": "Active"}, {"measurement": "Activity", "setting": "WI-38 [5]", "value": "Toxic"}, {"measurement": "growth inhibition (GI)", "setting": "PC-3 [6]", "value": "inactive"}, {"measurement": "growth inhibition (GI)", "setting": "PANC-1 [7]", "value": "Active"}, {"measurement": "growth inhibition (GI)", "setting": "SK-BR-3 [8]", "value": "inactive"}, {"measurement": "growth inhibition (GI)", "setting": "PC-3 [9]", "value": "inactive"}, {"measurement": "growth inhibition (GI)", "setting": "PANC-1 [10]", "value": "inactive"}, {"measurement": "metabolised at 3 h", "setting": "[11]", "value": 47, "unit": "%"}, {"measurement": "IC50", "setting": "PC-3 [12]", "value": 771, "unit": "µM"}, {"measurement": "solubility", "setting": "[13]", "value": "soluble"}, {"measurement": "growth inhibition (GI)", "setting": "SK-BR-3 [14]", "value": "inactive"}, {"measurement": "IC50", "setting": "PC-3 [15]", "value": 782, "unit": "µM"}]}
{"smiles": "CC(=O)Oc1ccccc1C(=O)O[C@@H]1[C@@H](O)[C@@H](O)O[C@H](CO)[C@H]1O", "values": [{"measurement": "growth inhibition (GI)", "setting": "PANC-1 [1]", "value": 20, "unit": "%"}, {"measurement": "IC50", "setting": "PANC-1 [16]", "value": 399, "unit": "µM"}, {"measurement": "inhibition of growth at 300 µM", "setting": "SK-BR-3 [2]; SK-BR-3, 48 h, read-out: GI", "value": 90, "unit": "%"}, {"measurement": "Ratio IC50", "setting": "PANC-1 [17]", "value": 8}, {"measurement": "inhibition of growth at 300 µM", "setting": "PC-3 [4]; PC-3, 48 h, read-out: GI", "value": 85, "unit": "%"}, {"measurement": "solubility", "setting": "[18]", "value": "soluble"}, {"measurement": "inhibition of growth at 300 µM", "setting": "PANC-1 [7]; PANC-1, 48 h, read-out: GI", "value": 70, "unit": "%"}, {"measurement": "inhibition of growth at 150 µM", "setting": "PANC-1 [19]", "value": 60, "unit": "%"}, {"measurement": "IC50", "setting": "SK-BR-3 [20]", "value": 87.8, "unit": "µM"}, {"measurement": "growth inhibition (GI)", "setting": "SK-BR-3 [8]", "value": 20, "unit": "%"}, {"measurement": "Activity", "setting": "WI-38 [21]", "value": "Non-toxic"}, {"measurement": "Activity", "setting": "PC-3 [22]", "value": "Active"}, {"measurement": "growth inhibition (GI)", "setting": "PC-3 [9]", "value": 20, "unit": "%"}, {"measurement": "IC50", "setting": "SK-BR-3 [23]", "value": 201, "unit": "µM"}, {"measurement": "Ratio IC50", "setting": "SK-BR-3 [24]", "value": 8}, {"measurement": "IC50", "setting": "WI-38 [25]", "value": 310, "unit": "µM"}, {"measurement": "inhibition of growth at 150 µM", "setting": "SK-BR-3 [26]", "value": 60, "unit": "%"}, {"measurement": "inhibition of growth at 300 µM", "setting": "PANC-1 [27]", "value": 60, "unit": "%"}, {"measurement": "inhibition of growth at 150 µM", "setting": "PC-3 [28]", "value": 65, "unit": "%"}, {"measurement": "metabolised at 3 h", "setting": "[11]", "value": 27, "unit": "%"}, {"measurement": "IC50", "setting": "WI-38 [29]", "value": 376, "unit": "µM"}, {"measurement": "IC50", "setting": "PC-3 [12]", "value": 83.2, "unit": "µM"}, {"measurement": "IC50", "setting": "PANC-1 [30]", "value": 90.5, "unit": "µM"}, {"measurement": "Activity", "setting": "WI-38 [31]", "value": "Active"}, {"measurement": "IC50", "setting": "PC-3 [15]", "value": 81.4, "unit": "µM"}, {"measurement": "inhibition of growth at 300 µM", "setting": "SK-BR-3 [32]", "value": 60, "unit": "%"}, {"measurement": "Ratio IC50", "setting": "PC-3 [33]", "value": 8}, {"measurement": "inhibition of growth at 300 µM", "setting": "PC-3 [34]", "value": 60, "unit": "%"}]}
